Experimental data: patent US20220187282A1, “CARDIOMYOCYTE PROLIFERATION” (The Council of the Queensland Institute of Medical Research, priority 2019, published 2022)
Like-named read-outs stand apart in the source and are kept apart here.

Tests used:
Assay type in all cases: biochemical
kinases [1] = target: kinases (Homo sapiens, UniProt O00329); conditions: PIK3CD/PIK3R1 FRET-Adapta SP; Test Conc(μM):ATP Conc(μM) 1:75
kinases [2] = target: kinases (Homo sapiens, UniProt P11309); conditions: PIM1 FRET-Z-Lyte SP; Test Conc(μM):ATP Conc(μM) 1:400
Chain of kinases (Homo sapiens, UniProt P11309) (P11309 whole entry): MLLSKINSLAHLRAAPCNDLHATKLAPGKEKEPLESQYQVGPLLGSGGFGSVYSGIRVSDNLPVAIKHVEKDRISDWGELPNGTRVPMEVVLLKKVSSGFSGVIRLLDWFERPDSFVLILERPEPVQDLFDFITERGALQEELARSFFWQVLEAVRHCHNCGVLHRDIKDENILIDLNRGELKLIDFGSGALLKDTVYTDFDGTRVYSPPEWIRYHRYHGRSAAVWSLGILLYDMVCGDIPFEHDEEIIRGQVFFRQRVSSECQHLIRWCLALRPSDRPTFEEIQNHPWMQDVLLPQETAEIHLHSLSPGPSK

kinases [3] = target: kinases (Homo sapiens, UniProt P17612); conditions: PRKACA (PKA) FRET-Z-Lyte SP; Test Conc(μM):ATP Conc(μM) 1:5
kinases [4] = target: kinases (Homo sapiens, UniProt P22694); conditions: PRKACB FRET-Lantha SP; Test Conc(μM) 1
kinases [5] = target: kinases (Homo sapiens, UniProt P28482); conditions: MAPK1 (ERK2) FRET-Z-Lyte SP; Test Conc(μM):ATP Conc(μM) 1:100
kinases [6] = target: kinases (Homo sapiens, UniProt P29322); conditions: EPHA8 FRET-Z-Lyte SP; Test Conc(μM):ATP Conc(μM) 1:100
kinases [7] = target: kinases (Homo sapiens, UniProt P35916); conditions: FLT4 (VEGFR3) *Mn* Z-Lyte SP; Test Conc(μM):ATP Conc(μM) 1:5
kinases [8] = target: kinases (Homo sapiens, UniProt P35968); conditions: KDR (VEGFR2) FRET-Z-Lyte SP; Test Conc(μM):ATP Conc(μM) 1:75
Chain of kinases (Homo sapiens, UniProt P35968) (P35968 20-1356): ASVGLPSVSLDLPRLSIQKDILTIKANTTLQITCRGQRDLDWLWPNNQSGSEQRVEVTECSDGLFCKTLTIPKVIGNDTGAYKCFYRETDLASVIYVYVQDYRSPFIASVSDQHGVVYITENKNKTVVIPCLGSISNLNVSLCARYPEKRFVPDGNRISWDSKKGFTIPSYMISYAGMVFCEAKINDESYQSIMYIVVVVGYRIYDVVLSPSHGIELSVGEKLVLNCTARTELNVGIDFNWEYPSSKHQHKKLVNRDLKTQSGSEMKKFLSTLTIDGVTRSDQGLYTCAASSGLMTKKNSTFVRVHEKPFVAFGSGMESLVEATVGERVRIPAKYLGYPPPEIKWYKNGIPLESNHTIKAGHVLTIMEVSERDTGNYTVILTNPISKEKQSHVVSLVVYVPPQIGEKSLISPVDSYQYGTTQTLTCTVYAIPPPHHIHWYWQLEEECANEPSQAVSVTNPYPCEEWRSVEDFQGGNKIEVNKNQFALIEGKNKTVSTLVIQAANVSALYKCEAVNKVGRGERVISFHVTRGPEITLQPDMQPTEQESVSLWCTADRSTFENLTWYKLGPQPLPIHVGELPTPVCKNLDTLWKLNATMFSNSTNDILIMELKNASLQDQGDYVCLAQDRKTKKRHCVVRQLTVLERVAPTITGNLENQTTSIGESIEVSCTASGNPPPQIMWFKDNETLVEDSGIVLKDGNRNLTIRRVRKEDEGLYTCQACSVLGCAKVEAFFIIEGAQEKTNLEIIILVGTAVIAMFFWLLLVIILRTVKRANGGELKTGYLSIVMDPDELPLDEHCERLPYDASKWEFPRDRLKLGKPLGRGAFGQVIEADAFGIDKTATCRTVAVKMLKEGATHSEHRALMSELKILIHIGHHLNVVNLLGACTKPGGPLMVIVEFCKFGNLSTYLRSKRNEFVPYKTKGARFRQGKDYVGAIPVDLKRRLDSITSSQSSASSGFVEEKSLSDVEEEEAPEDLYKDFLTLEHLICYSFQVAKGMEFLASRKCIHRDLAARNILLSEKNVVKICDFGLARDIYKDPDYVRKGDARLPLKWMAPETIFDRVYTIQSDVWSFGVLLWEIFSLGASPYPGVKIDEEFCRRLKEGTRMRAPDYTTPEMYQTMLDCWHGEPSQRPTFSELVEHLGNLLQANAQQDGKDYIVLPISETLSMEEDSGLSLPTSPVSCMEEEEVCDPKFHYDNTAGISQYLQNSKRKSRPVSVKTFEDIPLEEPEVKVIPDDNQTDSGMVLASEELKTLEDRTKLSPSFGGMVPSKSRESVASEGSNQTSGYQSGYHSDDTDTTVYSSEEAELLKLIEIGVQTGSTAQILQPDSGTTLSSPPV

kinases [9] = target: kinases (Homo sapiens, UniProt P36896); conditions: ACVR1B (ALK4) *Mn* Z-Lyte SP; Test Conc(μM):ATP Conc(μM) 1:5
kinases [10] = target: kinases (Homo sapiens, UniProt P41240); conditions: CSK FRET-Z-Lyte SP; Test Conc(μM):ATP Conc(μM) 1:10
kinases [11] = target: kinases (Homo sapiens, UniProt P42679); conditions: MATK (HYL) FRET-Z-Lyte SP
kinases [12] = target: kinases (Homo sapiens, UniProt P45983)
Chain of kinases (Homo sapiens, UniProt P45983) (P45983 whole entry): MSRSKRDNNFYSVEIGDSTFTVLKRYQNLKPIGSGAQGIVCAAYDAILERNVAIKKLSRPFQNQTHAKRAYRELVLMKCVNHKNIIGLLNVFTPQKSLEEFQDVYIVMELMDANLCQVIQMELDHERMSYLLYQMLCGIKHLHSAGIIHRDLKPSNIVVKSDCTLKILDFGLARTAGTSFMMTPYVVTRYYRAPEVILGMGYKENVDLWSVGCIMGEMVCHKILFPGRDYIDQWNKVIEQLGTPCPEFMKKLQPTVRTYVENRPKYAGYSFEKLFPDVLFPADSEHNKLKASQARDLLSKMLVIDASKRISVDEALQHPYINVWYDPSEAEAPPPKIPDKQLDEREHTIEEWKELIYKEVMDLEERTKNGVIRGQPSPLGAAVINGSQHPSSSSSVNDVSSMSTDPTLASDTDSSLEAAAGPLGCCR

kinases [13] = target: kinases (Homo sapiens, UniProt P48729); conditions: CSNK1A1 FRET-Z-Lyte SP; Test Conc(μM):ATP Conc(μM) 1:5
kinases [14] = target: kinases (Homo sapiens, UniProt P49841); conditions: GSK3B FRET-Z-Lyte SP; Test Conc(μM):ATP Conc(μM) 1:10
kinases [15] = target: kinases (Homo sapiens, UniProt P54753); conditions: EPHB3 FRET-Z-Lyte SP; Test Conc(μM):ATP Conc(μM) 1:75
kinases [16] = target: kinases (Homo sapiens, UniProt P78362); conditions: SRPK2 FRET-Z-Lyte SP; Test Conc(μM):ATP Conc(μM) 1:25
kinases [17] = target: kinases (Homo sapiens, UniProt Q04912); conditions: MST1R (RON) FRET-Z-Lyte SP; Test Conc(μM):ATP Conc(μM) 1:10
kinases [18] = target: kinases (Homo sapiens, UniProt Q08881); conditions: ITK FRET-Z-Lyte SP; Test Conc(μM):ATP Conc(μM) 1:5
kinases [19] = target: kinases (Homo sapiens, UniProt Q13043); conditions: STK4 (MST1) FRET-Z-Lyte SP; Test Conc(μM):ATP Conc(μM) 1:50
Chain of kinases (Homo sapiens, UniProt Q13043) (Q13043 whole entry): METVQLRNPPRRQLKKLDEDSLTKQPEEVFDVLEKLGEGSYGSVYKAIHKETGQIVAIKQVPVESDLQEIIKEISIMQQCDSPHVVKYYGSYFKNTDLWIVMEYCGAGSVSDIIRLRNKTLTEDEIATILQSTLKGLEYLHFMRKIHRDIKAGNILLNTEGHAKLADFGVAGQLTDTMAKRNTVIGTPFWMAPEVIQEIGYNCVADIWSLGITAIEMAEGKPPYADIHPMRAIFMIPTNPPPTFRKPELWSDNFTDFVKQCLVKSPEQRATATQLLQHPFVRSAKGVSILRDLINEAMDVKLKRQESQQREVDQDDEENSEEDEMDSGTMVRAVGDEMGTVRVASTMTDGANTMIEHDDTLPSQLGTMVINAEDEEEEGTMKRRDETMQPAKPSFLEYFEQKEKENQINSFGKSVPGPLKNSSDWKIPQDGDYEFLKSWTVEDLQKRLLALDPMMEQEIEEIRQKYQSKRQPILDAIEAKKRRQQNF

kinases [20] = target: kinases (Homo sapiens, UniProt Q13177); conditions: PAK2 (PAK65) FRET-Z-Lyte SP; Test Conc(μM):ATP Conc(μM) 1:75
kinases [21] = target: kinases (Homo sapiens, UniProt Q86YV6); conditions: MYLK4 FRET-Lantha SP; Test Conc(μM) 1
Chain of kinases (Homo sapiens, UniProt Q86YV6) (Q86YV6 whole entry): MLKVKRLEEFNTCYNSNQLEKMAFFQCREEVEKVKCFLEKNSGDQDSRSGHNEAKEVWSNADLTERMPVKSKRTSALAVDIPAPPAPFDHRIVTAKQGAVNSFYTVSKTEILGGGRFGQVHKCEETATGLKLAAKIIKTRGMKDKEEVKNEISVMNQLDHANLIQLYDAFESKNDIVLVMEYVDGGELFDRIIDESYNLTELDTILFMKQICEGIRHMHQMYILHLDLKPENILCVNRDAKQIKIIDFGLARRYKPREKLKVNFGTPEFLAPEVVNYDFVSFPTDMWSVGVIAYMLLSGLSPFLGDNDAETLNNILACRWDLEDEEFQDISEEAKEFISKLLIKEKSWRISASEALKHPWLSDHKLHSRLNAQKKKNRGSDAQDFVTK

kinases [22] = target: kinases (Homo sapiens, UniProt Q8N568); conditions: DCAMKL2 (DCK2) FRET-Z-Lyte SP; Test Conc(μM):ATP Conc(μM) 1:150
kinases [23] = target: kinases (Homo sapiens, UniProt Q8WTQ7); conditions: GRK7 FRET-Z-Lyte SP; Test Conc(μM):ATP Conc(μM) 1:10
Chain of kinases (Homo sapiens, UniProt Q8WTQ7) (Q8WTQ7 whole entry): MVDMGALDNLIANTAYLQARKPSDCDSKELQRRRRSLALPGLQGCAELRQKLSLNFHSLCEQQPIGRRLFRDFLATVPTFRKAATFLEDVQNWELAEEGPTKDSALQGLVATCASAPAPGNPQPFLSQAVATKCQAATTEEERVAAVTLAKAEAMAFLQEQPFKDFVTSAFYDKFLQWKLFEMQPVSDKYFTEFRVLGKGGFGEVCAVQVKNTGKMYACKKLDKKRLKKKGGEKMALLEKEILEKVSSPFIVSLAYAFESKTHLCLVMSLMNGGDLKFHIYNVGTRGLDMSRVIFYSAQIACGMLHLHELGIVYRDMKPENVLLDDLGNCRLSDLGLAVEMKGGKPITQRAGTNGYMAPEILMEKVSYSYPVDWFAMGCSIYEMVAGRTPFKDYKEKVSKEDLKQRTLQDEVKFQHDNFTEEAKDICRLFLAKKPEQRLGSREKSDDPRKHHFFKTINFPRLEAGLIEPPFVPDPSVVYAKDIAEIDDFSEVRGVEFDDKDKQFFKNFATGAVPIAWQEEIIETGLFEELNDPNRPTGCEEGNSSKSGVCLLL

kinases [24] = target: kinases (Homo sapiens, UniProt Q9BWU1); conditions: Test Conc(μM) 1
Chain of kinases (Homo sapiens, UniProt Q9BWU1) (Q9BWU1 whole entry): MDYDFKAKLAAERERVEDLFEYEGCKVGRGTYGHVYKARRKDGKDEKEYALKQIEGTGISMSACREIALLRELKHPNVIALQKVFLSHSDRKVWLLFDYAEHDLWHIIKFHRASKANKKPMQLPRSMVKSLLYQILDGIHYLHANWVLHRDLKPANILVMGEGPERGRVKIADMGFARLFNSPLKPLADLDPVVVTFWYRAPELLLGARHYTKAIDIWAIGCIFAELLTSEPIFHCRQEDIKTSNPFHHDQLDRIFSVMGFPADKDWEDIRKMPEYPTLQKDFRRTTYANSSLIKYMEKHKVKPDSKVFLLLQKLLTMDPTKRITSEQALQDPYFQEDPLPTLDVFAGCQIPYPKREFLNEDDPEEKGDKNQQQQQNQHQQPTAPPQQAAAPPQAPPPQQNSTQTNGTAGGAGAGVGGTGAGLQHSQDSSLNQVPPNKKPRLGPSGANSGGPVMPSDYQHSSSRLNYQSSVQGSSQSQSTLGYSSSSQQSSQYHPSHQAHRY

kinases [25] = target: kinases (Homo sapiens, UniProt Q9H792); conditions: PEAK1 FRET-Z-Lyte SP; Test Conc(μM):ATP Conc(μM) 1:50
kinases [26] = target: kinases (Homo sapiens, UniProt Q9UKI8); conditions: TLK1 FRET-Lantha SP; Test Conc(μM) 1
Chain of kinases (Homo sapiens, UniProt Q9UKI8) (Q9UKI8 whole entry): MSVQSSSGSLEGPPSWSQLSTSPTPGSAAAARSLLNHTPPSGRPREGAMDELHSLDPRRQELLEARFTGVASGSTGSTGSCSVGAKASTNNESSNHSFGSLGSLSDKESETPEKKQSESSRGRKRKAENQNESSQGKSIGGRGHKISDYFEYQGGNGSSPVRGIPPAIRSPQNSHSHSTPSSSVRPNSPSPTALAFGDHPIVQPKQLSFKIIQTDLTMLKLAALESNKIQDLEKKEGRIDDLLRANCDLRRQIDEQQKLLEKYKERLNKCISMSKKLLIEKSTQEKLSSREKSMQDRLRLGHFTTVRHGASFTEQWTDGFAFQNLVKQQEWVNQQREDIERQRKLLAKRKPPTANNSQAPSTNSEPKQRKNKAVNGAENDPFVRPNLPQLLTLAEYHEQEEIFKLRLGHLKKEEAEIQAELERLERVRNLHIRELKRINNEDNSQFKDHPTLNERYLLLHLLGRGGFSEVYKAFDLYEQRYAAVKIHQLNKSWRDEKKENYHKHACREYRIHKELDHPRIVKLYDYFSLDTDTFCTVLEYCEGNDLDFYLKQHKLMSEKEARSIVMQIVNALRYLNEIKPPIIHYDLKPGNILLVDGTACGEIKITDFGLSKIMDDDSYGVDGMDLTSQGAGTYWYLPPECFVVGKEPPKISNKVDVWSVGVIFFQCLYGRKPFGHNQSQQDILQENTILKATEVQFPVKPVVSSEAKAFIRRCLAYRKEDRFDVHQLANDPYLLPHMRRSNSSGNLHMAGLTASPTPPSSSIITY

kinases [27] = target: kinases (Homo sapiens, UniProt Q9Y6M4); conditions: CSNK1G3 (CK1gamma3) Z-Lyte SP; Test Conc(μM):ATP Conc(μM) 1:5
[28] = MAPK8 (JNK1) Cascade Z-Lyte SP, Test Conc(μM):ATP Conc(μM) 1:100
[29] = MAPK8 (JNK1) FRET-Lantha SP, Test Conc(μM) 1

SMILES | Mean Inhib (%) (kinases [1]) | Mean Inhib (%) (kinases [2]) | Mean Inhib (%) (kinases [3]) | Mean Inhib (%) (kinases [4]) | Mean Inhib (%) (kinases [5]) | Mean Inhib (%) (kinases [6]) | Mean Inhib (%) (kinases [7]) | Mean Inhib (%) (kinases [8]) | Mean Inhib (%) (kinases [9]) | Mean Inhib (%) (kinases [10]) | Mean Inhib (%) (kinases [12]; [28]) | Mean Inhib (%) (kinases [12]; [29]) | Mean Inhib (%) (kinases [13]) | Mean Inhib (%) (kinases [14]) | Mean Inhib (%) (kinases [15]) | Mean Inhib (%) (kinases [16]) | Mean Inhib (%) (kinases [17]) | Mean Inhib (%) (kinases [18]) | Mean Inhib (%) (kinases [19]) | Mean Inhib (%) (kinases [20]) | other results
Cc1ccc(NC(=O)c2ccnc(N3CCOCC3)c2)cc1Nc1ccnc(N2CC(C)OC(C)C2)n1 (stereo not shown) [compound 3] | 1.0 | 7.8 | 2.2 | 2.3 | 3.6 | 8.6 | 2.8 | 3.2 | 6.8 | 10.1 | 6.5 | −6.1 | 4.2 | 6.5 | −0.5 | −1.9 | −8.2 | 6.1 | −3.1 | 14.5 | Mean Inhib (%) (kinases [11]; Test Conc(μM):ATP Conc(μM) 1:300): 3.2%; Mean Inhib (%) (kinases [21]): 5.1%; Mean Inhib (%) (kinases [22]): 5.5%; Mean Inhib (%) (kinases [23]): 4.6%; Mean Inhib (%) (kinases [24]; CDK11(Inactive) FRET-Lantha SP): −0.2%; Mean Inhib (%) (kinases [24]; CDK11 Cyclin C FRET-Lantha SP): 2.1%; Mean Inhib (%) (kinases [25]): 0.8%; Mean Inhib (%) (kinases [26]): −4.3%; Mean Inhib (%) (kinases [27]): 2.9%
Cc1cc(Oc2ccnc(Nc3ccc(S(N)(=O)=O)cc3)c2)c(-c2ccccn2)nc1C [compound 65] | 23.8 | 3.8 | −4.7 | 10.9 | 7.5 | 64.7 | 2.0 | 3.8 | 97.8 | 6.4 | 16.9 | 7.0 | 4.1 | 4.9 | 1.6 | 1.9 | 5.3 | −6.9 | 8.7 | 12.5 | Mean Inhib (%) (kinases [11]; Test Conc(μM):ATP Conc(μM) 0.25): 1.8%; Mean Inhib (%) (kinases [21]): 14.6%; Mean Inhib (%) (kinases [22]): 4.9%; Mean Inhib (%) (kinases [23]): 8.3%; Mean Inhib (%) (kinases [24]; CDK11(Inactive) FRET-Lantha SP): 1.0%; CDK11 Cyclin C FRET-Lantha SP Mean Mean Inhib (%) (kinases [24]; CDK11 Cyclin C): 3.8%; Mean Inhib (%) (kinases [25]): 55.2%; Mean Inhib (%) (kinases [26]): −4.5%; Mean Inhib (%) (kinases [27]): 0.1%
